SMILES strings stand for the structures. Some results are limits rather than exact numbers.

This note sets out measurements from patent US20180125032A1, “Automated method and system for introducing Liquid iodine into drinking water” (priority 2010, published 2018).

Data set [1] can be described thus: Loss of I2 from water at room temperature (hydrolysis / out gassing). It counts as physicochemical. As for the experimental part:
The only significant anti-infective iodine species in water is molecular iodine (I2). In the pH range of 6.0<->7.0, I2 is favored when I2 is added directly into water. […] If the pH of the water is kept at about pH 6.0, I2 is favored, but if the pH is above 7.0, I2 will hydrolyze (3) to I^− and HOI and I3^− (7) can form and accumulate in the water. I have determined experimentally that I2 is lost from the water at room temperature at a linear rate of about 0.3 mcg/mL/hour when the pH of the water was adjusted to ˜pH5-5.5 with acetic acid to prolong survival of I2 in water. Thus after 24 hours >90% of the I2 is lost either to hydrolysis
or volatile I2 via out gassing. At higher pH, the iodine will dissipate faster or be converted to HOI. At neutral pH=7 the I2 loss is ˜0.5 mcg/mL/hr so that >90% is gone within 4 hours.

Data set [2] is described as follows: Pets drinking iodinated water, observation for ill effects. It counts as in vivo, dogs and cats.

`II` [I2, molecular iodine]: the “I2 lost (hydrolysis or out gassing)” value in data set [1] (after 24 hours, ~pH5-5.5, room temperature) is reported as over 90%. Further, the I2 loss rate in data set [1] (neutral pH=7) was about 0.5 µg/mL/h. Also, the “rate of I2 loss from the water (linear)” value in data set [1] (room temperature, water adjusted to ~pH5-5.5 with acetic acid) is “about 0.3 mcg/mL/hour”. The compound also had an I2 gone in data set [1] (within 4 hours, neutral pH=7) of over 90%. In addition, the ill effects result in data set [2] (dogs and cats followed for 3 weeks, 1-5 mcg/mL in drinking water) is reported as “no ill effects were noted”. The “changes in pet behavior, food consumption or excretion” value in data set [2] (two 35 kg dogs and two 4 kg cats, drinking water with average about 5 mcg/mL I2, followed for 4 days) is listed as “no obvious changes in pet behavior, food consumption or excretion”.
